Columns and labels:
[1] = In vivo pharmacokinetics of KY19382; conditions: SD male rat; for AUC(0-t): 0 to 24 hour
Method: Animal studies were approved by the Institutional Animal Care and use committee at KRIBB. Briefly, specific pathogen-free male Sprague−Dawley (SD) rats (10 weeks old, body weight 298−315 g), purchased from Koatech Co. […] Dosing solutions were prepared in dimethylacetamide (DMAC)/polyethylene glycol 400 (PEG400) (20/80, v/v %) for administrations, and administered at dosing volumes of 5 and 10 ml/kg for iv and ip, respectively. A 100 μl aliquot of each plasma sample was prepared, and three volumes of ice-cold acetonitrile containing carbamazepine (internal standard) were added. The mixture was centrifuged at 910 g for 10 minutes, and the supernatant was subjected to LC−MS/MS analysis. Pharmacokinetic parameters were calculated by standard noncompartmental analysis of plasma concentration−time profiles using Kinetica 4.4.1 (Thermo Fisher Scientific, Inc., Woburn, MA, USA). The areas under the plasma concentration−time curves (AUC) were calculated by the linear−trapezoidal method. Systemic plasma clearance (CLP) was calculated as follows: CLP = dose/AUCinf. Terminal elimination half-life (t1/2) was calculated by the following equation: t1/2 = 0.693/λZ where λZ is the terminal disposition rate constant. Volume of distribution at steady state (VSS) was calculated as follows: VSS = dose × AUMCinf/(AUCinf)^2, where AUMCinf is the area under the first moment of the plasma concentration−time curve extrapolated to infinity. Bioavailability (F) was calculated as follows: F (%) = (AUCip/AUCiv)(doseiv/doseip) × 100.
Pharmacokinetic parameters were based on the mean plasma concentration-time profiles of SD male rat (n=3). Pharmacokinetic parameters were obtained by non-compartmental analysis of the plasma concentration-time profiles using KineticaTM 4.4.1 (Thermo Fisher Scientific, Inc., Woburn, MA, USA). AUClast was calculated from 0 to 24 hour. IV, intravenous; IP, intraperitoneal; Tmax, Time to maximum plasm concentration; Cmax, Maximum plasma concentration after intraperitoneal injection; AUC, Area under the curve; CL, clearance; Vss, Volume of distribution at steady state; T1/2, Elimination half-life; F, bioavailability.

HEK293-TOP cells = assay: TOPFlash Wnt reporter assay; type: cell-based; conditions: 18 h
Method: Figure 4. Identification of functional properties of KY19382 in activating the Wnt/β-catenin pathway. (A) Chemical structure of KY19382. (B) In vitro binding assay to analyze the effect of KY19382 on CXXC5–DVL interaction (mean ± SEM, n = 3). The IC50 value was determined from the dose–response curve. (C) In vitro kinase assay to analyze the effect of KY19382 on kinase activity of GSK3β (mean ± SEM, n = 3). The IC50 value was determined from the dose–response curve. (D) Analyses of TOPFlash activity in HEK293 reporter cells grown with the indicated concentrations of KY19382 for 18 h (mean ± SEM, n = 4; t test, **P < 0.005 and ***P < 0.0005 versus DMSO-treated control). (E) Immunoblot analyses with the indicated antibodies in ATDC5 cells treated with I3O or KY19382 for 24 h. (F) Immunoblot analyses of whole cell lysates immunoprecipitated with anti-Myc in ATDC5 cells treated with 0.1 μM KY19382 for 4 h after transfection with pCMV-FLAG-DVL1 and pcDNA3.1-CXXC5-Myc. (G) Immunocytochemical staining (left) and quantitative analyses (mean ± SEM, n = 3; t test, **P < 0.005) (right) for β-catenin in ATDC5 cells treated with 0.1 μM KY19382 for 48 h. Scale bar, 100 μm.
HEK293-TOP cells were seeded into each well of a 24-well plate. The cells were treated with individual compounds at indicated concentration and cultured for 18 h. […]

GSK3β (human) = GSK3β (human) (Homo sapiens, UniProt P49841); assay: GSK3β kinase assay; type: biochemical; conditions: dose–response curve, n = 3; read-out: IC50, in vitro GSK3β activity
Chain of GSK3β (human) (P49841 whole entry): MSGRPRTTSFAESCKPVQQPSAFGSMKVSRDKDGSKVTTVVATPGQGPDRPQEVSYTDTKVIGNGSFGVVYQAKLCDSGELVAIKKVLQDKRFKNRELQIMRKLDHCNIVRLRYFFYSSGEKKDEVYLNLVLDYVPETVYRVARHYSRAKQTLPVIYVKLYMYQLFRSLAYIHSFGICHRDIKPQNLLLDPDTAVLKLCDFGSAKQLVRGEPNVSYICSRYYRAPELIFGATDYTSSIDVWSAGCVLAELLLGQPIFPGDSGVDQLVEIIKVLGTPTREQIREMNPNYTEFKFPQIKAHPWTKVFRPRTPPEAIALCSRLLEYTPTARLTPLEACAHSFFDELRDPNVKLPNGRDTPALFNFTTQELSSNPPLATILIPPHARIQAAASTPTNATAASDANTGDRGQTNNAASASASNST
Method: GSK3β (human) was incubated with 8 mM MOPS (pH 7.0), 0.2 mM EDTA, 20 μM […](p) EDEEE (phospho-GS2 peptide), 10 mM Mg acetate, and [γ-33P-ATP] (specific activity ∼500 cpm/pmol, concentration as required). The reaction was initiated by the addition of the Mg-ATP mixture. After incubation for 40 min at room temperature, the reaction was stopped by addition of 3% phosphoric acid solution. 10 μl of the reaction was then spotted onto a P30 filtermat and washed three times for 5 min in 50 mM phosphoric acid and once in methanol before drying and scintillation counting.

[2] = Sprague-Dawley, plasma, IP, 5 mg/kg, mean
[3] = Sprague-Dawley, plasma, IV, 1 mg/kg, mean

CL ([1]; IP, 5 mg/kg, mean): 7.83 mL/min/kg
bioavailability ([1]; Sprague-Dawley, plasma, intraperitoneal, IP 5 mg/kg vs IV 1 mg/kg, read-out: F (intraperitoneal bioavailability)): 16.7%
Cmax [1, 2]: 463 ng/mL
Tmax [1, 2]: 1 h
half-life [1, 2]: 16.2 h
AUC(0-t) [1, 2]: 6560 ng·h/mL
clearance [1, 3]: 2 mL/min/kg
half-life [1, 3]: 3.33 h
AUC(0-t) [1, 3]: 7830 ng·h/mL
Vd ([1]; Sprague-Dawley, plasma, IV, 1 mg/kg, mean, read-out: Vss): 0.33 L/kg
IC50 (GSK3β (human)): 10 nM
Structure (SMILES): CON=C1C(=C2C(=O)Nc3cc(Cl)c(Cl)cc32)Nc2ccccc21 [KY19382, 5,6-dichloroindirubin-3′-methoxime]
TOPFlash Wnt reporter activity (HEK293-TOP cells): strong enhancement

Reference: article PMC6458850, “CXXC5 mediates growth plate senescence and is a target for enhancement of longitudinal bone growth” (Life Science Alliance, 2019)
